In US12441716B2, “Compositions and methods for increasing muscle mass and oxidative metabolism” (The Regents of the University of California, priority 2019, dated 2025):
Each block holds one compound with its values, some of them ahead of it.

Assays:
[1] = biological target: T1, CaMKIIβ (Mus musculus, UniProt P28652); assay: CaMKIIβ activation in mouse skeletal muscles after injection, western blot with anti-phospho CaMKIIβ antibody; type: in vivo; conditions: mice, 10 mg/kg intraperitoneally; muscles collected 2, 4 and 6 hrs after injection; DMSO control
T1 construct: from tissue; host or cells: tissue of treated C3KO and WT mice
T1 sequence (P28652 whole entry): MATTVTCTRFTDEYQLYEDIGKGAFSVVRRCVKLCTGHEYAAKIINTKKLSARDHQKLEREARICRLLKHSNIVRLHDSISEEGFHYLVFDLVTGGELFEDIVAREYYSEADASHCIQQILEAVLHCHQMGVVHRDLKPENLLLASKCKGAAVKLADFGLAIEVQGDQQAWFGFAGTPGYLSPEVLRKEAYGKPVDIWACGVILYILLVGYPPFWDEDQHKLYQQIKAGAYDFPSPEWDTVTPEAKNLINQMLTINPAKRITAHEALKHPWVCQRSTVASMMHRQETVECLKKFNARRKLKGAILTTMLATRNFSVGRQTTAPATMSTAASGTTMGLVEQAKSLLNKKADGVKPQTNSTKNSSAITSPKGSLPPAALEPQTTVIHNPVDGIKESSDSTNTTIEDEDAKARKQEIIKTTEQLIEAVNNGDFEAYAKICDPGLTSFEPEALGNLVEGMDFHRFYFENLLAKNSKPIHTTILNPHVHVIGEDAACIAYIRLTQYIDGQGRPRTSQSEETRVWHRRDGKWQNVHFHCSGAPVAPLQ
Experimental: Mice were injected intraperitoneally with 10 mg/kg of AMBMP analog 3. Skeletal muscles were collected at 2, 4 and 6 hrs after injection. Mice injected with DMSO were used as a control group.

[2] = log P (partition coefficient between organic and aqueous phase); type: physicochemical
Text: It has been determined that compounds having a chemical structure of Formula I and/or Formula VII, or a pharmaceutically acceptable salt or solvate thereof, can increase muscle mass and muscle function. These chemicals can be effective in treating muscular dystrophy, such as limb girdle muscular dystrophy type 2A/R1/D1. Not to be bound by theory, it is believed that these compounds may provide their biological effect by over-riding the CAMKII signaling block by activating CaMKII. Accordingly, these can increase muscle size, mitochondrial complex I and II activity, expression of genes that comprise the slow fiber phenotype and running performance. Embodiments of the current disclosure is directed to compositions and methods of use for compounds having a chemical structure of Formula I and/or Formula VII, or a pharmaceutically acceptable salt or solvate thereof, that show similar or higher activity on CAMKII signaling as of AMBMP, but are less toxic and/or more soluble than AMBMP (Formula VI). […] One or more compounds having a chemical structure of Formula I and/or Formula VII, can have a EC50 potency of <1 uM on endogenous myosin light chain 2 (Myl2) promoter in C2C12 cells. The compounds can have a solubility >10 uM in water at standard temperature and pressure. […] Toxicity can be measured as a dose dependent effect of the compounds on cell death of C2C12 cells.

[3] = test system: endogenous Myosin light chain-2 (Myl2) expression in C2C12 cells; assay: Myl2 expression in C2C12 cells, RT-PCR normalized to GAPDH; type: cell-based; conditions: for Myl2 Relative expression/Gapdh at 2.5 μM: C2C12 cells, relative to GAPDH house-keeping control gene
Experimental: Bioactivity data of AMBMP analogs 1-6, 17, 18, and 25. Dose dependent effect of AMBMP analogs 1-6, 17, 18, and 25 on endogenous Myosin light chain-2 (Myl2) expression in C2C12 cells is shown in FIG. 16 A.
Effect of 2.5 μM AMBMP analog 1-6, 8, 17, 21, 25, 38, 39, and 40 on Myl2 expression relative to GAPDH (house-keeping control gene) in C2C12 cells is shown in Table 1. Myl2 is a marker of CaMKIIβ activity.
AMBMP analog 40 was tested in C2C12 myogenic cells for its ability to induce expression of Myl2. C2C12 cells were treated with AMBMP or AMBMP analog 40 for 48 hrs (concentrations are indicated on the graph); DMSO was used as a negative control. Expression of Myl2 was assessed by RT-PCR and normalized to GAPDH as a house-keeping control gene.

[4] = test system: C2C12 myogenic cells; assay: Tolerance of C2C12 myogenic cells to compound; type: cell-based; conditions: data not shown
[5] = test system: C3KO mice; assay: Muscle fiber cross-sectional area in treated C3KO mice; type: in vivo; conditions: 7.5 mg/kg/day for 14 days, i.p. or subQ injection
Experimental: (§1) Average cross-sectional area (CSA) measured in muscle cross sections after staining for fiber type. […] A) C3KO mice i.p. injected with AMBMP hydrochloride (7.5 mg/kg/day) for 14 days. B) C3KO mice treated AMBMP hydrochloride (7.5 mg/kg/day) for 14 days by subcutaneous (subQ) injection.

[6] = test system: C3KO mice; assay: Mitochondrial function / mitochondrial content (NADH staining) in muscles of treated C3KO mice; type: in vivo
Experimental: as §1
One set of C3KO mice were i.p. injected with AMBMP hydrochloride (7.5 mg/kg/day) for 14 days, another set of C3KO mice were i.p. injected with AMBMP hydrochloride (15 mg/kg/day) for 14 days and a control set of C3KO mice were not treated with AMBMP. Percent of total fibers with high mitochondrial content and intermediate mitochondrial content increased with AMBMP treatment in a dose dependent manner, and percent of total fibers with low mitochondrial content decreased with AMBMP treatment in a dose dependent manner (FIG. 12A). […] Quantification of NADH staining on plantaris muscles from AMBMP-treated mice (either 7.5 or 15 mg/kg, for 2 weeks (wks)) shown as a ratio of FOG:FG fibers. *p<0.05.

[7] = test system: C3KO mice; assay: Exercise performance after endurance training in C3KO mice; type: in vivo; conditions: i.p. 7.5 mg/kg/day for 14 days, 3-week endurance training
Text: Shown in FIG. 13, AMBMP treatment leads to improved exercise performance. Mice were subjected to endurance training over a 3-week period while being treated. Exercise performance was compared between pre and post exercise condition. Wild type (WT) mice were not treated with AMBMP.

[8] = test system: AKT; assay: AKT signaling in treated C3KO mice; type: in vivo; conditions: i.p. 7.5 mg/kg/day for 2 weeks
Text: (§2) Shown in FIG. 14, C3KO mice treated with AMBMP have normalized CaMKIIβ activity, but AKT or AMPK signaling are not affected.

[9] = biological target: T1, CaMKIIβ; assay: CaMKIIβ activity in mice treated for 2 weeks; type: in vivo; conditions: i.p. 7.5 mg/kg/day for 2 weeks
Text: as §2

[10] = test system: AMPK; assay: AMPK signaling in treated C3KO mice; type: in vivo; conditions: i.p. 7.5 mg/kg/day for 2 weeks
Text: as §2

[11] = test system: Capn3−/− muscles; assay: Percent slow myosin heavy chain positive fibers in soleus of calpainopathy mice; type: in vivo; conditions: daily for 2 wks at 30 mg/kg subQ

phospho-CaMKIIβ (P-CaMK) in skeletal muscles [1]: CaMKIIβ activation
logP [2]: 2.47
SMILES: Nc1nc(NCc2ccc3c(c2)OCO3)cc(-c2cccc(O)c2)n1 [AMBMP Analog 3, 3-(2-amino-6-((benzo[d][1,3]dioxol-5-ylmethyl)amino)pyrimidin-4-yl)phenol]
Myl2 Relative expression/Gapdh at 2.5 μM [3]: 0.4

SMILES: CCOc1cccc(-c2cc(NCc3ccc4c(c3)OCO4)nc(N)n2)c1 [AMBMP Analog 4]
Myl2 Relative expression/Gapdh at 2.5 μM [3]: 2

SMILES: CCCOc1cccc(-c2cc(NCc3ccc4c(c3)OCO4)nc(N)n2)c1 [AMBMP Analog 5]
Myl2 Relative expression/Gapdh at 2.5 μM [3]: 0.6

SMILES: CC(C)(C)Oc1cccc(-c2cc(NCc3ccc4c(c3)OCO4)nc(N)n2)c1 [AMBMP Analog 6]
Myl2 Relative expression/Gapdh at 2.5 μM [3]: 1.2

SMILES: Nc1nc(NCc2ccc3c(c2)OCO3)cc(-c2ccc(OC(F)(F)F)cc2)n1 [AMBMP Analog 17]
Myl2 Relative expression/Gapdh at 2.5 μM [3]: 0.2

SMILES: COc1cc(O)cc(-c2cc(NCc3ccc4c(c3)OCO4)nc(N)n2)c1 [AMBMP Analog 40, 3-(2-amino-6-((benzo[d][1,3]dioxol-5-ylmethyl)amino)pyrimidin-4-yl)-5-methoxyphenol]
tolerance by the cells compared to AMBMP [4]: better tolerated
Myl2 Relative expression/Gapdh at 2.5 μM [3]: 1.2
increase of Myl2 expression ([3]; C2C12 myogenic cells treated 48 hrs (1.25 μM, 5 μM), RT-PCR normalized to GAPDH, DMSO negative control): 2.5-2.9 fold

CaMKIIβ activity over untreated control ([9]; C3KO mice): increased CaMKIIβ activity
CaMKIIβ activity over untreated control ([9]; WT mice): increased CaMKIIβ activity
SMILES: COc1cccc(-c2cc(NCc3ccc4c(c3)OCO4)nc(N)n2)c1.Cl [AMBMP hydrochloride]
cross-sectional area of slow fibers [5]: significantly increased
cross-sectional area, both fiber types [5]: increase
mitochondrial function compared to control ([6]; i.p. 7.5 mg/kg/day for 14 days): improved mitochondrial function
mitochondrial content ([6]; i.p. 7.5 or 15 mg/kg/day for 14 days, plantaris muscles): increased mitochondrial content in a dose dependent manner
exercise performance pre vs post endurance training [7]: show a training effect
AKT signaling [8]: without impacting
AMPK signaling [10]: without impacting

SMILES: COc1cccc(-c2cc(NCc3ccc4c(c3)OCO4)nc(N)n2)c1 [AMBMP]
Myl2 Relative expression/Gapdh at 2.5 μM [3]: 1.4
% slow myosin heavy chain positive fibers in soleus [11]: Statistically significant shift
